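Tested at 5 concentrations; 48 h exposure; 96-well plates; endpoints linearly interpolated, else capped at highest concentration. GI50: concentration for 50% inhibition of growth. TGI is the concentration that stops growth completely.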
Columns and labels:
Assay in all cases: NCI tumour cell line growth inhibition, 48 h
[1] = tested on: HCT-116 colon
[2] = tested on: HCT-15 colon
[3] = tested on: K-562 leukemia
[4] = tested on: MOLT-4 leukemia
[5] = tested on: NCI-H23 lung
[6] = tested on: SF-268 CNS
[7] = tested on: SK-MEL-28 melanoma
[8] = tested on: SR leukemia
[9] = tested on: BT-549 breast
[10] = tested on: OVCAR-4 ovarian

Row | Structure (SMILES) | TGI [1] | TGI [2] | TGI [3] | TGI [4] | TGI [5] | TGI [6] | TGI [7] | TGI [8] | GI50 [9] | TGI [9] | GI50 [1] | GI50 [2] | GI50 [3] | GI50 [4] | GI50 [5] | GI50 [10] | TGI [10] | GI50 [6] | GI50 [7] | GI50 [8]
1 | CN1CC(C(=O)C2C(=O)c3ccccc3C2=O)C(=O)C(=O)C(C(=O)C2C(=O)c3ccccc3C2=O)C1 (stereo unspecified) | > 100 µM | > 100 µM | > 100 µM | > 100 µM | > 100 µM | > 100 µM | > 100 µM | > 100 µM | – | – | – | – | – | – | – | – | – | – | – | –
2 | CCN1c2ccccc2C(Cl)(c2ccc(N(C)C)cc2)c2ccccc21 | 10.3 µM | 49.4 µM | 25.7 µM | 15.2 µM | 14.4 µM | 19.3 µM | 22.4 µM | – | 12 µM | 29 µM | 2.66 µM | 11.9 µM | 3.1 µM | 3.27 µM | 3.04 µM | 11.9 µM | 25.3 µM | 5.61 µM | 7.96 µM | –
3 | NC(=O)C(c1ccccc1)N1CCOCC1 (stereo unspecified) | > 100 µM | > 100 µM | > 100 µM | > 100 µM | > 100 µM | > 100 µM | > 100 µM | > 100 µM | – | – | – | – | – | – | – | – | > 100 µM | – | – | –
4 | Cc1cc(NS(=O)(=O)c2ccc(NC(=O)c3cccc4c(Nc5ccc(S(=O)(=O)N=C(N)N)cc5)c5ccccc5nc34)cc2)no1 | > 100 µM | > 100 µM | > 100 µM | > 100 µM | > 100 µM | > 100 µM | > 100 µM | > 100 µM | – | – | – | – | – | – | – | – | > 100 µM | – | – | –
5 | C=CC1CC12C(=O)C1OC2(C)C2C(=O)c3c(O)ccc(O)c3C(=O)C12 (stereo unspecified) | 9.03 µM | 5.05 µM | 6.95 µM | 17 µM | 8.01 µM | 9.58 µM | 25.4 µM | – | 10.2 µM | 26.3 µM | 4.66 µM | 2 µM | 2.48 µM | 0.617 µM | 2.95 µM | 7.84 µM | 25.6 µM | 2.8 µM | 4.94 µM | –
6 | COc1ccc(/C=C\c2cc(OC)c(OC)c(OC)c2)cc1OC(=O)CCC(=O)O | – | > 100 µM | – | – | > 100 µM | 45.1 µM | > 100 µM | > 100 µM | – | > 100 µM | – | – | – | – | – | – | > 100 µM | – | – | –
7 | CC(C)(C)C(=O)ON1N=NC2C3CC(OCc4ccccc4)(OCc4ccccc4)C(O3)C21 (stereo unspecified) | – | 56.3 µM | 37 µM | 32.2 µM | 43.4 µM | 88.2 µM | 35.3 µM | – | – | – | – | – | – | – | – | – | 82.4 µM | – | – | –
8 | O=C1CN(C(=O)c2ccccc2)Cc2[nH]c3ccccc3c21 | > 100 µM | > 100 µM | > 100 µM | > 100 µM | > 100 µM | – | > 100 µM | > 100 µM | – | – | – | – | – | – | – | – | > 100 µM | – | – | –
9 | Fc1ccc(C2SCc3nc4ccccc4n32)cc1 (stereo unspecified) | > 100 µM | > 100 µM | > 100 µM | > 100 µM | > 100 µM | > 100 µM | 76.5 µM | 96.6 µM | – | – | – | – | – | – | – | – | > 100 µM | – | – | –
10 | COc1ccccc1C#Cc1ccccc1C#CCCCCCC#Cc1ccccc1C#Cc1ccccc1OC | > 100 µM | > 100 µM | > 100 µM | > 100 µM | > 100 µM | > 100 µM | > 100 µM | – | > 100 µM | > 100 µM | 58 µM | 40.9 µM | 31 µM | > 100 µM | 43.9 µM | 13.7 µM | 84.4 µM | 96.5 µM | 68.6 µM | –
11 | COc1ccccc1NC(=O)C1=C(C)NC(C)=C(C(=O)Nc2ccccc2OC)C1c1ccc(C)cc1 | > 100 µM | > 100 µM | > 100 µM | – | > 100 µM | > 100 µM | > 100 µM | – | – | – | – | – | – | – | – | – | > 100 µM | – | – | –
12 | Cc1cc(=O)oc2cc(OCc3c(F)cccc3Cl)ccc12 | > 100 µM | – | – | – | > 100 µM | > 100 µM | > 100 µM | – | – | > 100 µM | – | – | – | – | – | – | > 100 µM | – | – | –
13 | O=c1cc(-c2ccccc2)[nH]n1-c1nc2ccccc2[nH]1 | > 100 µM | > 100 µM | > 100 µM | – | > 100 µM | > 100 µM | > 100 µM | > 100 µM | 7.03 µM | > 100 µM | 3.12 µM | 3.44 µM | 3.94 µM | – | 9.69 µM | – | – | 8.67 µM | 3.61 µM | 5.86 µM
14 | CCN(c1ccc(Br)cc1)c1c(Br)c(=O)nc2ccccn12 | > 100 µM | > 100 µM | > 100 µM | > 100 µM | > 100 µM | > 100 µM | > 100 µM | > 100 µM | – | – | – | – | – | – | – | – | – | – | – | –
15 | CCOC(=O)/C=C/C(C(=O)/C=C/c1ccc(O)c(OC)c1)=C(O)\C=C\c1ccc(O)c(OC)c1 | 3.24 µM | 6.99 µM | > 100 µM | > 100 µM | 4.42 µM | 95.1 µM | 6.09 µM | > 100 µM | – | – | 1.31 µM | 2.27 µM | 5.66 µM | 4.27 µM | 1.73 µM | 7.36 µM | 25.7 µM | 11.1 µM | 2 µM | 11 µM
16 | O=C1C(=O)N(c2ccc(Cl)cc2Cl)C(=O)C(=O)C1c1nc2ccccc2o1 | > 100 µM | > 100 µM | > 100 µM | > 100 µM | > 100 µM | > 100 µM | > 100 µM | > 100 µM | – | – | – | – | – | – | – | – | > 100 µM | – | – | –
17 | CC(=O)OC1(C)C(=O)OC1(C)C(C)=O (stereo unspecified) | > 100 µM | > 100 µM | > 100 µM | > 100 µM | > 100 µM | > 100 µM | > 100 µM | – | – | – | – | – | – | – | – | – | > 100 µM | – | – | –
18 | O=C(CC(=O)N1N=C(N2c3ccccc3Sc3ccccc32)CC1c1ccccc1)Nc1ccc(Cl)cc1 (stereo unspecified) | > 100 µM | > 100 µM | – | – | > 100 µM | > 100 µM | > 100 µM | – | – | – | – | – | – | – | – | – | > 100 µM | – | – | –
19 | NC(N)=NNC(=O)CCCCCCCC(=O)NN=C(N)N | > 100 µM | 34.1 µM | > 100 µM | – | > 100 µM | > 100 µM | > 100 µM | – | – | – | – | – | – | – | – | – | > 100 µM | – | – | –
20 | Cc1c(C)[n+](=O)c(C)c(C)n1[O-] | > 100 µM | > 100 µM | > 100 µM | > 100 µM | > 100 µM | > 100 µM | > 100 µM | > 100 µM | – | – | > 100 µM | > 100 µM | > 100 µM | > 100 µM | > 100 µM | > 100 µM | > 100 µM | > 100 µM | > 100 µM | > 100 µM
21 | O=C(OCC1CO1)c1cccs1 (stereo unspecified) | – | > 100 µM | > 100 µM | > 100 µM | > 100 µM | > 100 µM | > 100 µM | – | – | – | – | – | – | – | – | – | > 100 µM | – | – | –

— PubChem BioAssay (NCI)
